Active and inactive are the calls of the source. The rule behind the calls is not given here.
Tests used:
Assay type in all cases: functional, cell-based
HeLa [1] = experiment: Induction of apoptosis in human HeLa cells at 100 uM after 48 hrs by TUNEL assay
HeLa [2] = experiment: Induction of apoptosis in human HeLa cells assessed as caspase-9 activation at 100 uM by Western blot
HeLa [3] = experiment: Induction of apoptosis in human HeLa cells at 100 uM after 24 hrs by TUNEL assay
HeLa [4] = experiment: Induction of apoptosis in human HeLa cells assessed as caspase-3 activation at 100 uM by Western blot
HeLa [5] = experiment: Induction of apoptosis in human HeLa cells assessed as PARP cleavage at 100 uM by Western blot
HeLa [6] = experiment: Induction of apoptosis in human HeLa cells assessed as increase in pro-apoptotic Bax protein at 100 uM after 24 hrs by Western blot
HeLa [7] = experiment: Induction of apoptosis in human HeLa cells assessed as caspase-8 activation at 100 uM by Western blot
HeLa [8] = experiment: Induction of apoptosis in human HeLa cells assessed as cytochrome C release from mitochondria at 100 uM after 24 hrs by confocal microscopy
HeLa [9] = experiment: Induction of apoptosis in human HeLa cells assessed as fragmented apoptotic bodies at 100 uM after 24 hrs by DAPI staining
HeLa [10] = experiment: Induction of apoptosis in human HeLa cells assessed as increase in pro-apoptotic Bak protein at 100 uM after 24 hrs by Western blot
HeLa [11] = experiment: Antiproliferative activity against human HeLa cells after 48 hrs by MTT assay

In the case of C=CC1CCC2(O)C(C=C)(C1)CC1(O)CC(O)C=CC12O (configuration not stated), the Activity (HeLa [1]) is reported as “Active”, the Activity (HeLa [2]) is reported as “Active” and the Activity (HeLa [3]) is reported as “Active”. The Activity (HeLa [4]) was “Active”, the Activity (HeLa [5]) was “Active” and the Activity (HeLa [6]) was “Active”. For the same compound, the Activity (HeLa [7]) was “Active”, the Activity (HeLa [8]) was “Active” and the Activity (HeLa [9]) was “Active”. The Activity (HeLa [10]) was “Active”, the Activity (HeLa [11]) was “Dose-dependent effect” and the IC50 (HeLa [11]) was 81.5 µM.
